Experimental data taken from patent publication US20080305186A1, “Method and Composition for the Treatment of Cardiac Hypertrophy” (BOARD OF REGENTS, THE UNIVERSITY OF TEXAS SYSTEM, priority 2007, published 2008).

Tested on: cardiac gene expression
Test: Microarray analysis of cardiac gene expression (GeneChip Mouse Genome 430 2.0)
Format: in vivo, mice
Protocol: Microarray Sample Preparation and Analysis. Animal hearts were rapidly removed, and the atria and right ventricles were cut and immediately plunged into TRIzol Reagent (Life Technologies). Total RNA was isolated following the manufacturer's instructions, purified by phenol-chloroform extraction and then ethanol precipitation, and 20 μg further processed for microarray analysis. Briefly, cDNA synthesis, in vitro transcription, and labeling and fragmentation to produce the oligonucleotide probes were performed as instructed by the GeneChip manufacturer (Affymetrix). The probes were first hybridized to a test array (Affymetrix) and then to the GeneChip Mouse Genome 430 2.0 Array, using the GeneChip Hybridization Oven 640. The chips were washed in a GeneChip Fluidics Station 450 (Affymetrix), and the results were visualized with a GeneChip G7 scanner (Affymetrix). RMA normalization, pairwise comparisons, Student's t test and Benjamini and Hochberg correction were subsequently performed using GeneSifter (VizX Labs, Seattle, Wash.) and Spotfire DecisionSite 8.3 (Spotfire, Inc., Somerville, Mass.).
Effects on Gene Expression Profile. […] One mouse heart was used for each array, and was performed in triplicate, generating a total of 12 arrays. GeneSifter was used to perform RMA normalization, pairwise comparisons of averaged signal intensity values, and Student's t-test with Benjamini and Hochberg correction, and Spotfire was used to perform pairwise comparisons. […] Additionally, genes that were altered between any two N or cardiac hypertrophy samples were removed, as these alterations most likely represented normal variations between mice.

Q: For `C[C@H]1c2cccc(O)c2C(=O)C2=C(O)[C@]3(O)C(=O)C(C(N)=O)=C(O)[C@@H](N(C)C)[C@@H]3[C@@H](O)[C@@H]21` [doxycycline], which “FC Tubulointerstitial nephritis antigen-like (Tinagl)” value (GenBank BC005738, heart, drug + isoproterenol vs isoproterenol-only mice, CH vs normal FC 2.1) is on record?
A: −1.8 fold

Q: And the “FC Tubulin alpha (Tuba2)” value (GenBank BC008117, heart, drug + isoproterenol vs isoproterenol-only mice, CH vs normal FC −2.7)?
A: 4.1 fold

Q: And the “FC Intercellular adhesion molecule (Icam1)” value (GenBank BC008626, vs mice given only isoproterenol)?
A: −2.7

Q: What about the “FC Similar to serine protease inhibitor-2 related sequee 1 (Serpina3m)” value (GenBank BC011158, vs mice given only isoproterenol) of the same compound?
A: −2.4

Q: What about the “FC Phosphatidylinositol binding clathrin assembly protein (Picalm)” value (GenBank BC011470, vs mice given only isoproterenol) of the same compound?
A: −1.5

Q: And the “FC Isochorismatase domain containing 1 (Isoc1)” value (GenBank BC016576, vs mice given only isoproterenol)?
A: 2.8

Q: What about the “FC EGF, latrophilin seven transmembrane domain containing 1 (Eltd1)” value (GenBank BC017134, vs mice given only isoproterenol) of the same compound?
A: −2.0

Q: And the “FC Ras homolog gene family, member B (RhoB)” value (GenBank BC018275, vs mice given only isoproterenol)?
A: −2.1

Q: And the “FC D site albumin promoter binding protein (Dbp)” value (GenBank BC018323, vs mice given only isoproterenol)?
A: 10.2

Q: What about the “FC RAD52 homolog (S. cerevisiae) (Rad52)” value (GenBank BC019123, vs mice given only isoproterenol) of the same compound?
A: −1.8

Q: And the “FC Leucine-rich repeat-containing 3b (Lrrc3b)” value (GenBank BC019794, vs mice given only isoproterenol)?
A: 1.9

Q: What about the “FC Solute carrier family 45, member 3 (Slc45a3)” value (GenBank BC024519, vs mice given only isoproterenol) of the same compound?
A: −1.8

Q: What about the “FC Rho GTPase activating protein 24 (Arhgap24)” value (GenBank BC025502, vs mice given only isoproterenol) of the same compound?
A: −1.8

Q: And the “FC Motile sperm domain containing 2 (Mospd)” value (GenBank BC026425, vs mice given only isoproterenol)?
A: −1.7

Q: And the “FC Similar to metallothionein 1 (Mt1)” value (GenBank BC027262, vs mice given only isoproterenol)?
A: −2.7

Q: What about the “FC Guanine deaminase (Gda)” value (GenBank BE136057, vs mice given only isoproterenol) of the same compound?
A: −1.7

Q: What about the “FC EST” value (GenBank BE553782, vs mice given only isoproterenol) of the same compound?
A: −1.6

Q: And the “FC EST” value (GenBank BE630303, vs mice given only isoproterenol)?
A: −1.8

Q: And the “FC ESTs” value (GenBank BE630363, vs mice given only isoproterenol)?
A: −3.1

Q: And the “FC ESTs” value (GenBank BE685667, vs mice given only isoproterenol)?
A: −3.2

Q: What about the “FC EST” value (GenBank BE687858, vs mice given only isoproterenol) of the same compound?
A: −1.5

Q: And the “FC EST” value (GenBank BE852759, vs mice given only isoproterenol)?
A: 1.7

Q: And the “FC Retinoblastoma binding protein 4 (Rbbp4)” value (GenBank BF011461, vs mice given only isoproterenol)?
A: 2.1

Q: What about the “FC Methyl-CpG binding domain protein 1 (Mbd1)” value (GenBank BF121558, vs mice given only isoproterenol) of the same compound?
A: −1.8

Q: And the “FC SET translocation (Set)” value (GenBank BF134272, vs mice given only isoproterenol)?
A: 2.0

Q: What about the “FC Protein tyrosine phosphatase 4a1 (Ptp4a1)” value (GenBank BF179910, vs mice given only isoproterenol) of the same compound?
A: −1.9

Q: What about the “FC Potassium channel, subfamily K, member 3 (Kcnk3)” value (GenBank BF467278, vs mice given only isoproterenol) of the same compound?
A: 3.9

Q: What about the “FC Smoothelin (Smtn)” value (GenBank BF578669, vs mice given only isoproterenol) of the same compound?
A: 1.5

Q: What about the “FC EST” value (GenBank BF780807, vs mice given only isoproterenol) of the same compound?
A: −1.9

Q: And the “FC ESTs” value (GenBank BG067678, vs mice given only isoproterenol)?
A: 2.6

Q: And the “FC EST” value (GenBank BG068705, vs mice given only isoproterenol)?
A: −1.7

Q: What about the “FC SET domain containing (lysine methyltransferase) 8)Setd8)” value (GenBank BG069700, vs mice given only isoproterenol) of the same compound?
A: 1.9

Q: What about the “FC Neuronal PAS domain protein 2 (Npas2)” value (GenBank BG070037, vs mice given only isoproterenol) of the same compound?
A: −2.6

Q: And the “FC Pleckstrin homology domain containing, family G (with RhoGef domain) member 1 (Plekhg1)” value (GenBank BG073502, vs mice given only isoproterenol)?
A: −2.0

Q: And the “FC Microtubule-actin crosslinking factor 1 (Macf1)” value (GenBank BG074706, vs mice given only isoproterenol)?
A: 2.7

Q: What about the “FC Insulin-like growth factor 1 (Igf1)” value (GenBank BG075165, vs mice given only isoproterenol) of the same compound?
A: 2.3

Q: And the “FC p53 regulated PA26 nuclear protein (Sestrin 1) (Sesn1)” value (“FC p53 regulated PA26 nuclear protein” below) (GenBank BG076140, 1st listing, vs mice given only isoproterenol)?
A: −2.9

Q: And the “FC p53 regulated PA26 nuclear protein” value (GenBank BG076140, 2nd listing, vs mice given only isoproterenol)?
A: −3.5

Q: What about the “FC EST” value (GenBank BG092512, vs mice given only isoproterenol) of the same compound?
A: −2.9

Q: And the “FC Transforming growth factor, beta receptor II (Tgfbr2)” value (GenBank BG793483, heart, drug + isoproterenol vs isoproterenol-only mice, CH vs normal FC 2.4)?
A: −2.3 fold

Q: What about the “FC Restin-like 2 (Rsnl2)” value (GenBank BG916957, vs mice given only isoproterenol) of the same compound?
A: 1.9

Q: What about the “FC mVL30-1 retroelement” value (GenBank BI076714, vs mice given only isoproterenol) of the same compound?
A: −2.1

Q: And the “FC Methylcrotonoyl-Coenzyme A carboxylase 2 (beta) (Mccc2)” value (GenBank BI155184, vs mice given only isoproterenol)?
A: 1.7

Q: And the “FC Transforming, acidic coiled-coil containing protein 2 (Tacc2)” value (GenBank BI466416, heart, drug + isoproterenol vs isoproterenol-only mice, CH vs normal FC 2.6)?
A: −2.5 fold

Q: What about the “FC PHD finger protein 15 (Phf15)” value (GenBank BI663145, vs mice given only isoproterenol) of the same compound?
A: −2.1

Q: What about the “FC Tissue inhibitor of metalloproteinase 4 (Timp4)” value (GenBank BI788452, heart, drug + isoproterenol vs isoproterenol-only mice, CH vs normal FC 3.2) of the same compound?
A: −3.1 fold

Q: What about the “FC Zi finger and BTB domain containing 16 (Zbtb16)” value (GenBank BM115255, heart, drug + isoproterenol vs isoproterenol-only mice, CH vs normal FC 7.5) of the same compound?
A: −1.6 fold

Q: And the “FC GTL2, imprinted maternally expressed untranslated mRNA (Gtl2)” value (GenBank BM119226, vs mice given only isoproterenol)?
A: 1.7

Q: And the “FC Ectodermal-neural cortex 1 (E1)” value (GenBank BM120053, 1st listing, vs mice given only isoproterenol)?
A: −2.0

Q: What about the “FC Ectodermal-neural cortex 1 (E1)” value (GenBank BM120053, 2nd listing, vs mice given only isoproterenol) of the same compound?
A: −1.9

Q: What about the “FC Pellino 2(peli2)” value (GenBank BM121149, vs mice given only isoproterenol) of the same compound?
A: −1.9

Q: And the “FC REST corepressor 1 (Rcor1)” value (GenBank BM194994, vs mice given only isoproterenol)?
A: 3.3

Q: And the “FC EST” value (GenBank BM219553, vs mice given only isoproterenol)?
A: −2.6

Q: What about the “FC Phospholipase D1 (Pld1)” value (GenBank BM228590, 1st listing, vs mice given only isoproterenol) of the same compound?
A: −2.0

Q: What about the “FC Phospholipase D1 (Pld1)” value (GenBank BM228590, 2nd listing, vs mice given only isoproterenol) of the same compound?
A: −1.6

Q: What about the “FC SET translocation (Set)” value (GenBank BM229104, vs mice given only isoproterenol) of the same compound?
A: 2.0

Q: And the “FC p53 regulated PA26 nuclear protein” value (GenBank BM237933, vs mice given only isoproterenol)?
A: −2.4

Q: What about the “FC Macrophage activation 2 (Mpa21)” value (GenBank BM241485, vs mice given only isoproterenol) of the same compound?
A: −3.6

Q: And the “FC Prohibitin (Phb)” value (GenBank BM243379, vs mice given only isoproterenol)?
A: −2.1

Q: What about the “FC Serine iorporator 3 (Seri3)” value (GenBank BM244064, vs mice given only isoproterenol) of the same compound?
A: −1.8
